Measurements reported in US8697692B2, “Pyrrolo [3,2-c] pyridine-4-one 2-indolinone protein kinase inhibitors” (Shanghai Hengrui Pharmaceutical Co., Ltd., priority 2006, dated 2014).
Like-named read-outs stand apart in the source and are kept apart here.

Tests used:
A431 cell = assay: Cell Proliferation Inhibition EGFR Assay (SRB method); type: cell-based, homo sapient; settings: Homo sapiens, read-out: IC50 (A431)
Text: The following in vitro assay may be used to determine the level of activity and effect of different compounds of the present invention on the proliferation inhibition (cell toxic) of […] growth factor receptor (EGFR) high expressing homo […] cancer cell-A431 cell. The cellular assay described here measure the compounds of their anti-angiogenesis and proliferation inhibition activity and effect through EGFR on the cancer cells in vitro. The effect and activity is represented by the IC50 value that kills the cancer cell. […] The homo […] highly express EGFR are chosen and seeded to 96-well cell culture plate at a suitable concentration (exp 5000 cells/ml medium). The cells then are cultured in carbon dioxide (CO2) incubator till when they confluence to about 85%. Then, the cell culture medium is replaced by fresh one with tested compounds added in it at serial concentrations (general 6 to 7 concentrations). Then the cells are put back to the culture and cultured for continuous 72 hours. 72 hours later, the cell exposed to compounds and control cell are assayed for their proliferation using Sulforhodamine B (SRB) method. Compounds IC50 on tested cells are calculated by the data of inhibition rates of serial concentrations of the tested compounds. • a. Dimethyl sulfoxide (Sinophma chemical reagent company, catalog No. T20050806) • b. A431 cells (Purchased from Institute of biochemistry and cell biology) • c. Falcon 100 mm cell culture plates (Baton Dickison Labware, Baton Dickison and company, • Catalog No. 18677) • d. coming 96-well culture cluster (Corning Incorporated, Catalog No. 3599) • e. Fisher Pipette (Fisher scientific, Catalog No. 03-692-164) • f. DMEM/F12 cell medium (Gibco, Catalog No. 12400-024) • g. Fetal bovine serum, origin from Australia (Gibco, Catalog No. 10099-141) • h. […] Sulforhodamine B (Sigma, Catalog No. 3520-42-1) • k. Acetic Acid (Sinophma chemical reagent company, Catalog No. T20060508) • l. Trichloroacetic Acid (Sinophma chemical reagent company, Catalog No. T20060305) • m. Tris base (Amresco, Catalog No. 0826) • n. Class II A/B3 Biological safety cabinet (ThermoForma Catalog No. HB0053 03) • o. Series II water jacketed CO2 incubator (ThermoForma Model: 3111) • p. Centrifuge (Fisher Scientific Marathon 8 k, Catalog No. 0027-02) • q. Novastar Plate reader (BMG Labtech, Catalog No. 700 0081) • r. Orbital Shaker (Qilinbeier, Catalog No. TS-1) Protocol: […] Growing seeded 96-well plates at 37° C., 5% CO2, till 85% confluence. • 4. Prepare compounds stock solution, using DMSO solve candidate compounds to a concentration of 20 mM. […] Use cell culture medium (in this case, DMEM/F12+10% FBS) to dilute the compounds solution prepared above. Each DMSO serial concentration compound solution is diluted by 20 times with culture medium by adding 5 μl DMSO compound solution to 95 μl culture medium, then mix well by vortex. This promise that the DMSO concentration at that the A431 cell will exposed to will not surpass 0.5%. • 6. […] Each well added 180 μl medium, then add 20 μl medium solution of tested compounds prepared at step 5 to each well. For control group cell, add 20 μl culture medium containing 0.5% pure DMSO. […] Each 96-well plate, we can test 3 compounds with a control cell group. • 7. Put the culture plates back to incubator, culture for 72 hours at 37° C., 5% CO2. • 8. 72 hours later, remove cultures from incubator into sterile work area. • 9. Prepare fixative (50% Trichloroacetic Acid-TCA) by adding reagent grade water to the TCA, fix the cells by gently layering […] of cold TCA solution on top of the growth medium. • 10. Incubate plates for 1 hour at 4° C. and then rinse with water several times to remove TCA, serum proteins, etc. Plates are air dried and stored until use. Bland background optical density is measured in wells incubated with growth medium without cells. • 11. Use 10% acetic acid solution to prepare 0.4% Sulforhodamine B solution. Add 50 μl sulforhodamine B solution to each well of 96-well plates. • 12. […]

EGFR kinase = biological target: T1, EGFR kinase (Homo sapiens, UniProt P00533); assay: EGFR Kinase Assay; type: biochemical; settings: 20 μM ATP, 25° C. 45 minutes
T1 construct: purchased Cell signaling technology #7908
T1 sequence (P00533 25-1210): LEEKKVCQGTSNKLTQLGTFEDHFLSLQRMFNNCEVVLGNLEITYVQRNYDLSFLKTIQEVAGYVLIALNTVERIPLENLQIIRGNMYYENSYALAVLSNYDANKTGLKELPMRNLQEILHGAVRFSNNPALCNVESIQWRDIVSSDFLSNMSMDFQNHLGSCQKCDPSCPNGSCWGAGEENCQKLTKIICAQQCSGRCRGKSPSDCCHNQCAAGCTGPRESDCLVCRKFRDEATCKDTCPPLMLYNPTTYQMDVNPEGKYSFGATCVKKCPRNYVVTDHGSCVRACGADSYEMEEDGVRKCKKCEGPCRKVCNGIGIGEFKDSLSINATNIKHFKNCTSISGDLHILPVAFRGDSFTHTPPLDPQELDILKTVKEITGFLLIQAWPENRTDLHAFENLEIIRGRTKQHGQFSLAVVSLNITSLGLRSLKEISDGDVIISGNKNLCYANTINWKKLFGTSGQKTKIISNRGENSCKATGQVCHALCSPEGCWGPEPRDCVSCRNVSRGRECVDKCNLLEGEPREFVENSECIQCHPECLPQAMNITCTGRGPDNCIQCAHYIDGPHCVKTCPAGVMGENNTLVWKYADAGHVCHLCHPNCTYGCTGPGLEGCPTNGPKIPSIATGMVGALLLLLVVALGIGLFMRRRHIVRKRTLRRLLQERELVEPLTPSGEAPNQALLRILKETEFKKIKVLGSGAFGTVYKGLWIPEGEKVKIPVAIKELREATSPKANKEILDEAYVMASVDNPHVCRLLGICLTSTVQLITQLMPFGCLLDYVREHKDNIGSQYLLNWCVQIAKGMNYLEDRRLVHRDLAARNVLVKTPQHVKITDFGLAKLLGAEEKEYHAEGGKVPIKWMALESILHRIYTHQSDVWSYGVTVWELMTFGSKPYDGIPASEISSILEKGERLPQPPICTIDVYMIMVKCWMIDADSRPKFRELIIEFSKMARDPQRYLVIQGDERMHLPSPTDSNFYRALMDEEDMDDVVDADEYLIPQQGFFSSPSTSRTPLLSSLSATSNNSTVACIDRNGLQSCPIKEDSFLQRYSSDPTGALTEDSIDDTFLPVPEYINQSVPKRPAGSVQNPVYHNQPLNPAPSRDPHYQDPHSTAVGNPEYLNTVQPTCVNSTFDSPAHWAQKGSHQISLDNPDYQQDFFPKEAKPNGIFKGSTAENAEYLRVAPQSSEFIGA
Protocol: EGFR kinase activity in vitro was measured as described below:
a. Wash Buffer (PBS-T Buffer): 1×PBS (137 mM NaCl, 2.7 mM KCl, 4.3 mM Na2HPO4, 1.4 mM KH2PO4, adjust the pH to 7.2) and 0.05% Tween-20.
b. 1% Bovine Serum Albumin (BSA, Calbiochem #136593) in PBS-T.
c. Stop Buffer: 50 mM EDTA, pH 8.0
d. DELFIA® Europium-labeled Anti-mouse IgG (PerkinElmer Life Sciences #AD0124)
e. DELFIA® Enhancement Solution (PerkinElmer Life Sciences #1244-105)
f. DELFIA® Streptavidin coated, 96-well, yellow plate (PerkinElmer Life Sciences #AAAND-0005)
g. EGFR kinase (supplied in 50 mM Tris-HCl (pH 8.0), 100 mM NaCl, 5 mM DTT, 15 mM reduced glutathione and 20% glycerol. Cell signaling technology #7908).
h. 10 mM ATP solution (Cell signaling technology #9804).
i. PTP1B (Tyr66) Biotinylated Peptide (Cell signaling technology #1325).
j. Phospho-Tyrosine Mouse mAb (P-Tyr-100) (Cell signaling technology #9411).
k. HTScan™ Tyrosine Kinase Buffer (4×)
(Cell signaling technology #9805).
l. 1.25 M DTT (1000×) (Cell signaling technology).
The following protocol was used:
1. Dilute test compound with DMSO to the desired final assay concentration.
2. Dilute 6 μM substrate peptide (Tyr66) 1:1 with dH2O, add 15 μl to every assay.
3. Immediately transfer EGFR enzyme from −80° C. to ice. Allow enzyme to thaw on ice.
4. Take 3 μg EGFR enzyme to the enzyme tube.
5. Add 10 μl of DTT (1.25 M) to 2.5 ml of 4×HTScan™ Tyrosine Kinase Buffer (240 mM HEPES pH 7.5, 20 mM MgCl2, 20 mM MnCl2, 12 μM Na3VO4) to make DTT/Kinase buffer.
6. Transfer 0.75 ml of DTT/Kinase buffer to each enzyme tube to make 4× reaction cocktail. Add 7.5 μl 4× reaction cocktail to every assay.
7. Add 4 μl ATP (10 mM) to 496 μl dH2O, take 7.5 μl for every assay.
Final Assay Conditions for a 30 μl Reaction
Incubate reaction tube at 25° C. for 45 minutes. 9. Add 30 μl/assay stop buffer (50 mM EDTA, pH 8.0) to stop the reaction. 10. Transfer 25 μl of each reaction and 75 μl dH2O/well to a 96-well streptavidin coated plate and incubate, with shaking at room temperature for 60 minutes. 11. Wash three times with 200 μl/well PBS-T buffer. Pat plate on paper towel to remove excess liquid. 12. Dilute primary antibody, Phospho-Tyrosine mAb (P-Tyr-100), 1:1000 in PBS-T buffer with 1% BSA. Add 100 μl diluted primary antibody to each well. 13. Incubate, with shaking at room temperature for 60 minutes. 14. Wash as described above in step 11. 15. Dilute Europium labeled anti-mouse IgG 1:500 in PBS-T buffer with 1% BSA. Add 100 μl diluted antibody to each well. 16. Incubate, with shaking at room temperature for 30 minutes. 17. Wash five times with 200 μl/well PBS-T buffer. Pat plate on paper towel to remove excess liquid. 18. Add 100 μl/well DELFIA® Enhancement Solution. 19. Incubate, with shaking at room temperature for 5 minutes. 20. Detect 615 nm fluorescence emission with appropriate Time-Resolved Plate Reader.
Calculate the inhibition rate: IR (%)=100−100*(X−B)/(N−B)
X=the fluorescence value of the well contained test compound
The IC50 value can be derived from the IRs of compounds at different concentration gradients.

HUVEC cell = assay: Cell Proliferation Inhibition VEGF-R2 Assay (SRB method); type: cell-based, homo sapient; settings: Homo sapiens; HUVEC cells, 72 hours exposure, Sulforhodamine B; read-out: IC50 (VEGFR/HUVEC)
Text: The following in vitro assay may be used to determine the level of activity and effect of different compounds of the present invention on the proliferation inhibition (cell toxic) of endothelium growth factor receptor (VEGFR) high expressing homo […] cancer cell-HUVEC cell. The cellular assay described here measure the compounds of their anti-angiogenesis and proliferation inhibition activity and effect through […] on the cancer cells in vitro. The effect and activity is represented by the IC50 value that kills the cancer cell. […] The homo […] highly express […] are chosen and seeded to 96-well cell culture plate at a suitable concentration (exp 5000 cells/ml medium). The cells then are cultured in carbon dioxide (CO2) incubator till when they confluence to about 85%. Then, the cell culture medium is replaced by fresh one with tested compounds added in it at serial concentrations (general 6 to 7 concentrations). Then the cells are put back to the culture and cultured for continuous 72 hours. 72 hours later, the cell exposed to compounds and control cell are assayed for their proliferation using Sulforhodamine B (SRB) method. […] Dimethyl sulfoxide (Sinophma chemical reagent company, catalog No. T20050806) • b. HUVEC cells (Purchased from Institute of biochemistry and cell biology) • c. […] Acetic Acid (Sinophma chemical reagent company, Catalog No. T20060508) • l. Trichloroacetic Acid (Sinophma chemical reagent company, Catalog No. T20060305) • m. […] Class II A/B3 Biological safety cabinet (ThermoForma Catalog No. HB0053-03) • o. […] Centrifuge (Fisher Scientific Marathon 8 k, Catalog No. 0027-02) • q. Novastar Plate reader (BMG Labtech, Catalog No. 700-0081) • r. […] Growing seeded 96-well plates at 37° C., 5% CO2, till 85% confluence. • 4. Prepare compounds stock solution, using DMSO solve candidate compounds to a concentration of 20 mM. […] Use cell culture medium (in this case, DMEM/F12+10% FBS) to dilute the compounds solution prepared above. Each DMSO serial concentration compound solution is diluted by 20 times with culture medium by adding 5 μl DMSO compound solution to 95 μl culture medium, then mix well by vortex. […] After HUVEC cell has attached to the dish bottom and confluence about 85%, change the culture medium with fresh DMEM/F12 plus 10% FBS. Each well added 180 μl medium, then add 20 μl medium solution of tested compounds prepared at step 5 to each well. For control group cell, add 20 μl culture medium containing 0.5% pure DMSO. […] Each 96-well plate, we can test 3 compounds with a control cell group. • 7. Put the culture plates back to incubator, culture for 72 hours at 37° C., 5% CO2. • 8. 72 hours later, remove cultures from incubator into sterile work area. • 9. Prepare fixative (50% Trichloroacetic Acid-TCA) by adding reagent grade water to the TCA, fix the cells by gently layering 50 μl of cold TCA solution on top of the growth medium. • 10. Incubate plates for 1 hour at 4° C. and then rinse with water several times to remove TCA, serum proteins, etc. Plates are air dried and stored until use. Bland background optical density is measured in wells incubated with growth medium without cells. • 11. Use 10% acetic acid solution to prepare 0.4% Sulforhodamine B solution. Add 50 μl sulforhodamine B solution to each well of 96-well plates. • 12. Allow cells to stain for 30 minutes. • 13. Prepared the wash solution of […] acetic acid. At the end of the staining period, the stain is removed and the cells rinsed quickly with 1% acetic acid. Repeat until unincorporated dye is removed. Keep wash times to a minimum to reduce desorption of protein-bound dye. After being rinsed, the cultures are air dried until no moisture is visible. • 14. The incorporated dye is then solubilized in a volume of Sulforhodamine B assay Solubilization solution (10 mM Tris) equal to the original volume of culture medium. Allow cultures to stand for 5 minutes at room temperature.

Row | IC50 (A431 cell; A-431, A431 cells, 72 hours exposure, Sulforhodamine B) | SMILES | IC50 (A431 cell; A-431, 72 h) | IC50 (EGFR kinase) | IC50 (HUVEC cell)
1 | – | CCN(CC)CCN1CCc2[nH]c(/C=C3\C(=O)Nc4ccc(Cl)cc43)c(C)c2C1=O [Example 2, 2-(5-Chloro-2-oxo-1,2-dihydro-indol-3-ylidenemethyl)-5-(2-diethylamino-ethyl)-3-methyl-1,5,6,7-tetrahydro-pyrrolo[3,2-c]pyridin-4-one] | 1040 nM | 290 nM | –
2 | – | CCN(CC)CCN1CCc2[nH]c(/C=C3\C(=O)Nc4ccc(F)cc43)c(C)c2C1=O [Example 1, 5-(2-Diethylamino-ethyl)-2-(5-fluoro-2-oxo-1,2-dihydro-indol-3-ylidenemethyl)-3-methyl-1,5,6,7-tetrahydro-pyrrolo[3,2-c]pyridin-4-one] | 1090 nM | 280 nM | –
3 | – | CCN(CC)CCN1CCc2[nH]c(/C=C3\C(=O)Nc4ccc(Br)cc43)c(C)c2C1=O [Example 3, 2-(5-Bromo-2-oxo-1,2-dihydro-indol-3-ylidenemethyl)-5-(2-diethylamino-ethyl)-3-methyl-1,5,6,7-tetrahydro-pyrrolo[3,2-c]pyridin-4-one] | 1260 nM | 490 nM | –
4 | 1310 nM | Cc1c(/C=C2\C(=O)Nc3ccc(F)cc32)[nH]c2c1C(=O)N(CCN1CCCC1)CC2 [Example 13, 2-(5-Fluoro-2-oxo-1,2-dihydro-indol-3-ylidenemethyl)-3-methyl-5-(2-pyrrolidin-1-yl-ethyl)-1,5,6,7-tetrahydro-pyrrolo[3,2-c]pyridin-4-one] | – | 190 nM | –
5 | – | O=C1Nc2ccc(Br)cc2/C1=C/c1[nH]c2c(c1-c1ccccc1)C(=O)NCC2 [Example 41, 2-(5-Bromo-2-oxo-1,2-dihydro-indol-3-ylidenemethyl)-3-phenyl-1,5,6,7-tetrahydro-pyrrolo[3,2-c]pyridin-4-one] | – | 6010 nM | 220 nM
